Measured values reported in patent US5021431A, “Imidazolyl alkyl guanidine derivatives, processes for their preparation and pharmaceutical preparations containing these compounds” (Heumann Pharma GmbH & Co., priority 1985, dated 1991).
Counter-ions that a name gives are not always drawn. Like-named read-outs stand apart in the source and are kept apart here.

Experiments:
histamine-H2 receptors = target: T1, histamine-H2 receptors (Cavia porcellus, UniProt P47747); assay: cell-based; set-up: species or system guinea-pig
T1 construct: determined on the isolated atrium or ileum of the guinea-pig; from tissue; host or cells: isolated right atrium of the guinea-pig
T1 sequence (P47747 whole entry): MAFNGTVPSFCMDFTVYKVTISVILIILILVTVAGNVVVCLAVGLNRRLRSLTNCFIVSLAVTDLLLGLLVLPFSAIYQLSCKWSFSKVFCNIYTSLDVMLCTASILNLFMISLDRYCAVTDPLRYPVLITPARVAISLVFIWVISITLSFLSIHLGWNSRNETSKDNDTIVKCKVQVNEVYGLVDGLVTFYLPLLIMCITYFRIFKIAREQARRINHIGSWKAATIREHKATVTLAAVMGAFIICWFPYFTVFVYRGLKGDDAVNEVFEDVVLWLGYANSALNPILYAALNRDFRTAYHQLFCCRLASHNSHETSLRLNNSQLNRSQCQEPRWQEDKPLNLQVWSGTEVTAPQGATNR
Excerpt: For determining the H2 -agonistic activity (pD2 -values), use is made of the method according to J. M. VAN ROSSUM, (1963), Cumulative dose-response curves, II, Technique for the making of dose-response curves in isolated organs and the evaluation of drug parameters, Arch. Int. Pharmacodyn. Ther. 143, 299-307.
(§1) Pharmacological Data (determined on the isolated atrium or ileum of the guinea-pig)
(§2) The values listed below represent the H2 -agonistic (pD2) and H1 -antagonistic (pA2) effect of the dual active compounds

H1 receptor = H1 receptor (Cavia porcellus, UniProt P31389); assay: cell-based; details: isolated ileum of the guinea pig; for Kb: read-out: pA2 ileum (H1-antagonistic effect) (converted)
H1 receptor, sequence (P31389 whole entry): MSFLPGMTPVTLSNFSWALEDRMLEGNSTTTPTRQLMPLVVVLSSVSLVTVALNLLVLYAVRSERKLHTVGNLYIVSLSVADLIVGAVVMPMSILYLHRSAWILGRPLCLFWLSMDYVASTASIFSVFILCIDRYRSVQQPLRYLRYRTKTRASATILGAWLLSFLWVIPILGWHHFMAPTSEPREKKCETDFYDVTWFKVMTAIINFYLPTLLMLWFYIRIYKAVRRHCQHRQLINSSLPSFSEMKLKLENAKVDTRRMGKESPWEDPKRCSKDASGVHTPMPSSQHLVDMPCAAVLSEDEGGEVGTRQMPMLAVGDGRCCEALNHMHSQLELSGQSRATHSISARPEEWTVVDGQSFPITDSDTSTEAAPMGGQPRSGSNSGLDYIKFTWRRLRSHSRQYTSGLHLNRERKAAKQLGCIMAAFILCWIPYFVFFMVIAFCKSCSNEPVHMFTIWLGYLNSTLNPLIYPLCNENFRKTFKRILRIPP
Excerpt: The new class of structures according to the invention has both an H1 -antagonistic and an H2 -agonistic active component. […] One recognized method for determining H1 -antagonistic activity is the determination of the pA2 -values in vitro (O. ARUNLAKSHANA and H. O. SCHILD (1959) Some quantitative uses of drug antagonists--Br. J. Pharmacol. Chemother. 14, 48-58).
as §1, §2

[1] = isolated right atrium of the guinea pig, read-out: pD2 right atrium (H2-agonistic effect) (converted)
[2] = isolated right atrium of the guinea pig

| EC50 (histamine-H2 receptors; [1]) [nM] | Kb (H1 receptor) [nM] | pA2 ileum (H1-antagonistic effect) (H1 receptor) | pD2 right atrium (H2-agonistic effect) (histamine-H2 receptors; [2]) | SMILES | EC50 (histamine-H2 receptors) [nM] |
| --- | --- | --- | --- | --- | --- |
| 891 | 112 |  |  | Cc1ccc(N(C)CCCNC(=N)NCCCc2c[nH]cn2)nc1 [Example 10, N^1-[3-[N-(5-Methyl-pyridin-2-yl)-methylamino]propyl]-N^2-[3-(1H-imidazol-4-yl)propyl]guanidine trihydrochloride] |  |
| 1200 | 3.24 |  |  | Cc1cc(Br)cnc1CCCCNC(=N)NCCCc1c[nH]cn1 [Example 17, N^1-[4-(5-Bromo-3-methyl-pyridin-2-yl)butyl]-N^2 [3-(1H-imidazol-4-yl)propyl]-guanidine trihydrochloride] |  |
| 67.6 | 63.1 | 7.20 |  | N=C(NCCCc1c[nH]cn1)NCCC(c1ccccc1)c1ccccc1 [Example 78, N-[3-(Imidazol-4-yl)propyl]-N'-(3.3-diphenylpropyl)-guanidine] |  |
| 126 | 126 | 6.9 |  | Cc1[nH]cnc1CCCNC(=N)NCCC(c1ccccc1)c1ccccc1 [Example 96, N-[3-(5-Methylimidazol-4-yl)propyl]-N'-(3,3-diphenylpropyl)-guanidine] |  |
|  |  | 7.41 | 6.15 | N=C(NCCCc1c[nH]cn1)NCCN(Cc1ccccc1)c1ccccc1 [Example 101, N^1-[3-(4-Imidazolyl)propyl]-N^2-[2-(N-benzyl-N-phenylamino)-ethyl]-guanidine trihydrochloride] |  |
| 6920 | 57.5 |  |  | N=C(NCCCc1c[nH]cn1)NCCN(Cc1ccccc1)c1ccc(Br)cc1 [Example 104, N^1-[3-(4-Imidazolyl)propyl]-N^2-[2-(N-benzyl-N-(4-bromophenyl)amino)ethyl]-guanidine trihydrochloride] |  |
| 51.3 | 2000 |  |  | CC(CSCc1ccccn1)NC(=N)NCCCc1c[nH]cn1 (stereo not drawn) [Example 121, N-[3-(Imidazol-4-yl)propyl]-N'-[1-methyl-2-[(pyrid-2-yl)methylthio]-ethyl]-guanidine] |  |
| 63.1 | 31.6 |  |  | N=C(NCCCc1c[nH]cn1)NCCC(c1ccc(Cl)cc1)c1ccccn1 (stereo not drawn) [Example 129, N-[3-(4-Chlorophenyl)-3-(pyrid-2-yl)propyl]-N'-[3-(imidazol-4-yl)propyl]-guanidine] |  |
| 93.3 | 50.1 |  |  | N=C(NCCCc1c[nH]cn1)NCCC(c1ccccn1)c1cccs1 (stereo not drawn) [Example 134, N-[3-(Imidazol-4-yl)propyl]-N'-[3-(pyrid-2-yl)-3-(2thienyl)propyl]-guanidine] |  |
| 112 |  | 6.6 |  | N=C(NCCCc1c[nH]cn1)NCCCC(c1ccccc1)c1ccccn1 (stereo not drawn) [Example 136, N-[3-(Imidazol-4-yl)propyl]-N'-[4-phenyl-4-(pyrid-2-yl)butyl]-guanidine] |  |
| 1260 | 8.91 |  |  | NC(=NCCN(Cc1ccccc1)c1ccccn1)NCCCc1c[nH]cn1 [Example 140, N^1-[3-(4-imidazolyl)propyl]-N^2-[2-(N-benzyl-N-(pyrid-2-yl)-amino)ethyl]-guanidine trihydrochloride] |  |
| 1950 | 2.57 |  |  | NC(=NCCN(Cc1ccc(F)cc1)c1ccccn1)NCCCc1c[nH]cn1 [Example 143, N^1-[3-(1H-Imidazol-4-yl)propyl]-N^2-[2-[N-(4-fluorobenzyl)-N-(pyridin-2-yl)-amino]ethyl]-guanidine] |  |
| 6030 | 398 |  |  | Cc1cc(Br)cnc1N(CCNC(=N)NCCCc1c[nH]cn1)Cc1ccccc1 [Example 144, N^1-[2-[N-(5-Bromo-3-methyl-pyridin-2-yl)-benzylamino]ethyl]-N^2-[3-(1H-imidazol-4-yl)propyl]-guanidine trihydrochloride] |  |
| 100 | 126 |  |  | N=C(NCCCc1c[nH]cn1)NCCN(c1ccccc1)c1ccccn1 [Example 147, N^1-[3-(Imidazol-4-yl)propyl]-N^2-[2-(N-(2-pyridyl)-N-phenylamino)ethyl]-guanidine trihydrochloride] |  |

Continued, compound first:

| SMILES | EC50 (histamine-H2 receptors; [1]) [nM] | Kb (H1 receptor) [nM] | pA2 ileum (H1-antagonistic effect) (H1 receptor) | pD2 right atrium (H2-agonistic effect) (histamine-H2 receptors; [2]) | EC50 (histamine-H2 receptors) [nM] |
| --- | --- | --- | --- | --- | --- |
| N=C(NCCCCc1cccnc1)NCCCc1c[nH]cn1 [Example 12, N^1-[4-(Pyridin-3-yl)butyl]-N^2-[3-(1H-imidazol-4-yl)propyl]guanidine trihydrochloride] | 200 | 562 |  |  |  |
| Cc1[nH]c(CN(C)C)nc1CSCCNC(=N)NCCCc1c[nH]cn1 [Example 51, N-[2-[(2-Dimethylaminomethyl-5-methylimidazol-4-yl)methylthio]ethyl]-N'-[3-(imidazol-4-yl)propyl]-guanidine] | 67.6 | 3160 |  |  |  |
| CC(SCCNC(=N)NCCCc1c[nH]cn1)c1ccccc1 (stereo not drawn) [Example 60, N-[3-(Imidazol-4-yl)propyl]-N'-[2-[(1-phenylethyl)thio]ethyl]-guanidine] | 288 | 2290 |  |  |  |
| Cc1ccc(C(SCCNC(=N)NCCCc2c[nH]cn2)c2ccccc2)cc1 (stereo not drawn) [Example 62, N-[3-(Imidazol-4-yl)propyl]-N'-[2-[(p-methyl-α-phenylbenzyl)thio]ethyl]-guanidine] | 3890 | 11500 |  |  |  |
| N=C(NCCCc1c[nH]cn1)NCCCC(c1ccccc1)c1ccccc1 [Example 97, N-[3-(Imidazol-4-yl)propyl]-N'(4,4-diphenylbutyl)-guanidine] | 200 | 158 |  |  |  |
| N=C(NCCCc1c[nH]cn1)NCCN(Cc1ccccc1)c1ccc(F)cc1 [Example 102, N^1-[3-(4-Imidazolyl)propyl]-N^2-[2-(N-benzyl-N-(4-fluorophenyl)amino)ethyl]-guanidine trihydrochloride] | 234 | 25.1 |  |  |  |
| N=C(NCCCc1c[nH]cn1)NCCN(Cc1ccccc1)c1ccc(Cl)cc1 [Example 103, N^1-[3-(4-Imidazolyl)propyl]-N^2-[2-(N-benzyl-N-(4-chlorophenyl)amino)ethyl]-guanidine trihydrochloride] | 2690 | 29.5 |  |  |  |
| N=C(NCCCc1c[nH]cn1)NCCSCc1cccs1 [Example 105, N-[3-(Imidazol-4-yl)propyl]-N'-[2-(2-thenylthio)ethyl]-guanidine] |  | 1230 |  |  | 51.3 |
| N=C(NCCCc1c[nH]cn1)NCCSC(c1ccccc1)c1ccccn1 (stereo not drawn) [Example 123, N-[3-(Imidazol-4-yl)propyl]-N'-[2-[(phenyl(pyrid-2-yl)methyl)thio]ethyl]-guanidine] | 224 |  | 7.0 |  |  |
| N=C(NCCCc1c[nH]cn1)NCCC(c1ccccc1)c1ccccn1 (stereo not drawn) [Example 127] | 39.8 | 52.5 | 7.28 | 7.4 |  |
| N=C(NCCCc1c[nH]cn1)NCCC(c1ccc(Br)cc1)c1ccccn1 (stereo not drawn) [Example 131, N-[3-(4-Bromophenyl)-3-(pyrid-2-yl)propyl]-N'-[3-(imidazol-4-yl)propyl]-guanidine] | 83.2 | 316 |  |  |  |
| NC(=NCCC(c1ccc(F)cc1)c1ccccn1)NCCCc1cnc[nH]1 (stereo not drawn) [Example 133, N-[3-(4-Fluorophenyl)-3-(pyrid-2-yl)propyl]-N'-[3-(imidazol-4-yl)propyl]-guanidine] | 12.6 | 31.6 |  |  |  |
| N=C(NCCCc1c[nH]cn1)NCCN(Cc1ccc(Cl)cc1)c1ccccn1 [Example 141, N^1-[3-(1H-Imidazol-4-yl)propyl]-N^2-[2-[N-(4-chlorobenzyl) N-(pyridin-2-yl).amino]ethyl]-guanidine] | 1000 | 12.3 |  |  |  |
| COc1ccc(CN(CCN=C(N)NCCCc2c[nH]cn2)c2ccccn2)cc1 [Example 142, N^1-[3-(1H-Imidazol-4-yl)propyl]-N2-[2-[N-(4-methoxybenzyl)-N-(pyridin-2-yl)-amino]ethyl]-guanidine] | 1580 | 8.32 |  |  |  |
| N=C(NCCCc1c[nH]cn1)NCCN(c1ccccc1)c1ccccc1 [Example 145, N^1-[3-(Imidazol-4-yl)propyl]-N^2-[2-(diphenylamino)ethyl]-guanidine trihydrochloride] | 6030 | 398 |  |  |  |
| N=C(NCCCc1c[nH]cn1)NCCN(c1ccccc1)c1ccc(F)cc1 [Example 146, N^1-[3-(Imidazol-4-yl)propyl]-N^2-[2-N-(phenyl-N(4-fluorophenyl)amino)ethyl]-guanidine trihydrochloride] | 1100 | 1000 |  |  |  |
| N=C(NCCCc1c[nH]cn1)NCCN(c1ccc(F)cc1)c1ccccn1 [Example 148, N^1-[3-(Imidazol-4-yl)propyl]-N^2-[2-(N-(2-pyridyl)N-(4-fluorophenyl)amino)ethyl]-guanidine trihydrochloride] | 316 | 15.8 |  |  |  |
